Measured values published in patent US8592172B2, “Bioluminescent assays using cyanobenzothiazole compounds” (Promega Corporation, priority 2010, dated 2013).
Values belong to the compound of their own block, whether it stands above or below them.

What was measured:
UGT 1A9 = target: T1, UGT 1A9 (Homo sapiens, UniProt O60656); test: Recombinant UGT panel, substrate utilization; assay type: biochemical; settings: 2 hour incubation at 37° C., recombinant Supersomes, background corrected
T1 construct: purchased BD Gentest; host or cells: insect cells (microsomes)
T1 sequence (O60656 26-530): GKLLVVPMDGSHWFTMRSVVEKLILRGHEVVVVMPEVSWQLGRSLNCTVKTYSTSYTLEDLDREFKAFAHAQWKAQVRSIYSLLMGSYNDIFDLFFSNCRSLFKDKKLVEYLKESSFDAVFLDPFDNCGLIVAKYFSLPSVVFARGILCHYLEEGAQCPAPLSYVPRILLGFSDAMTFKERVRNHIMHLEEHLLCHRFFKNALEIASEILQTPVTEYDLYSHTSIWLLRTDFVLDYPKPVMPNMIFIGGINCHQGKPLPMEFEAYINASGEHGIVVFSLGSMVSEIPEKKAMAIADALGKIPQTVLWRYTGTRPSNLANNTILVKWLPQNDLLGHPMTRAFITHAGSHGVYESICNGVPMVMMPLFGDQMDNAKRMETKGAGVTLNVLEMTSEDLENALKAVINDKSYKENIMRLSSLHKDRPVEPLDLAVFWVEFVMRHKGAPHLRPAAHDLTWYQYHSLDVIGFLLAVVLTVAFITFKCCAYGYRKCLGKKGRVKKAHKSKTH
Experimental: (§1) During this incubation, the cysteine reacts with the cyanobenzathiozole substrate to yield a D-luciferin derivative. […] Therefore, activity of the UGT enzyme can be measured by analyzing the difference (lower or no output) in relative light units (RLU) of a sample in which glucuronidation occurs compared to a sample that was run under the same conditions with no added UDPGA cofactor.
(§2) In this example, a series of 12 recombinant UGTs expressed in insect microsomes (Supersomes™, BD Gentest™), as well as the control microsomes not expressing the UGT enzyme, were incubated with compound 3138, compound 3478, or compound 3165 as substrates, with or without the UDPGA co-factor.
(§3) After addition of a luciferin detection reagent (LDR) containing D-cysteine, both the substrate and the product were converted to D-luciferins (compound 3478 is already a luciferin derivative before addition of the LDR).
(§4) Reactions were assembled in a white, 96-well plate. Each well contained 20 μL of reaction mixture comprised of 100 mM TES, pH 7.5, 16 mM MgCl2, 50 μg/mL alamethicin (Sigma), 60 μM compound 3138 or compound 3478, and 0.4 mg/mL of control or recombinant UGT membranes. The reactions were initiated by addition of 20 μL of water or 8 mM triammonium UDPGA (Sigma) to each well. The plate was mixed, sealed, and incubated in a 37° C. water bath for 2 hours. After the incubation, 40 μL P450-Glo LDR (Promega) with 20 mM D-cysteine-HCl.H2O (Sigma) was added to each well, the plate was mixed and allowed to incubate at room temperature for 20 minutes. After the incubation was completed, the plate was read on a Veritas™ luminometer (Turner BioSystems, Inc.; Sunnyvale, Calif.).
(§5) For each isozyme, the bioluminescence from the replicates containing UDPGA were subtracted from the average bioluminescence of the replicates without UDPGA. The average Δ RLU value obtained and the standard deviation of the replicates were then divided by the average bioluminescence for samples without UDPGA to obtain the % utilization for each isozyme. The % utilization obtained from the control microsomes was then subtracted from each isozyme to give the background corrected utilization data for those isozymes.

UGT 1A4 = target: T2, UGT 1A4 (Homo sapiens, UniProt P22310); test: Recombinant UGT panel, substrate utilization; assay type: biochemical; settings: 2 hour incubation at 37° C., recombinant Supersomes
T2 construct: purchased BD Gentest; host or cells: insect cells (microsomes)
T2 sequence (P22310 29-534): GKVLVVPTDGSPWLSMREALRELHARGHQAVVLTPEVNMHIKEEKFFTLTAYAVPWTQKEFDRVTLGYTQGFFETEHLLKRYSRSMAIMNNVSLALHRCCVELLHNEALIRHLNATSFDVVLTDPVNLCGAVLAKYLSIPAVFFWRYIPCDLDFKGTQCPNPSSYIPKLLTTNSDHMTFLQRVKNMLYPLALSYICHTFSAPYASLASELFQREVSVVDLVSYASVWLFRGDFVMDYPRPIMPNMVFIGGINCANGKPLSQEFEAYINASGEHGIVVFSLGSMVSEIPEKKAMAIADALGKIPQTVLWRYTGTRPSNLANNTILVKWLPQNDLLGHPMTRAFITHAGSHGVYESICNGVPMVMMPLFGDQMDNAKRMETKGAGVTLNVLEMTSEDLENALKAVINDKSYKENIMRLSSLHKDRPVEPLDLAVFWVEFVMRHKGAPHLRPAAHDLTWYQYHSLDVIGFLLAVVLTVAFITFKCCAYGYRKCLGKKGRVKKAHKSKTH
Experimental: as §1, §2, §3, §4, §5

mouse liver microsomes = test: Utilization of compound 3165 by mouse liver microsomes; assay type: biochemical; settings: 50 μM compound 3165, 0.2 mg/mL microsomes, 2 hours at 37° C.
Experimental: (§6) The ability of endogenously expressed UGT isozymes to utilize compounds 3138 and 3165 as substrates was determined in a similar manner to the assays with recombinant microsomes (Example 1). […] Tissue microsomes were obtained from Xenotech LLC or BD Gentest. Addition of P450-Glo LDR plus cysteine and data analysis was performed in the same manner as for the recombinant Supersome panel screen (Example 1 above).

human liver microsomes = test: Utilization of compound 3165 by human microsomes; assay type: biochemical; settings: 50 μM compound 3165, 0.2 mg/mL microsomes, 2 hours at 37° C.
Experimental: as §6

rat liver microsomes = test: Utilization of compound 3165 by rat liver microsomes; assay type: biochemical; settings: 50 μM compound 3165, 0.2 mg/mL microsomes, 2 hours at 37° C.
Experimental: as §6

UGT 1A1 = target: T3, UGT 1A1 (Homo sapiens, UniProt P22309); test: Inhibition of recombinant UGT 1A1 Supersomes, compound 3138 as substrate; assay type: biochemical; settings: 20 μM compound 3138, 0.1 mg/mL Supersomes, 90 minutes at 37° C.
T3 construct: purchased BD Gentest; host or cells: insect cells (microsomes)
T3 sequence (P22309 26-533): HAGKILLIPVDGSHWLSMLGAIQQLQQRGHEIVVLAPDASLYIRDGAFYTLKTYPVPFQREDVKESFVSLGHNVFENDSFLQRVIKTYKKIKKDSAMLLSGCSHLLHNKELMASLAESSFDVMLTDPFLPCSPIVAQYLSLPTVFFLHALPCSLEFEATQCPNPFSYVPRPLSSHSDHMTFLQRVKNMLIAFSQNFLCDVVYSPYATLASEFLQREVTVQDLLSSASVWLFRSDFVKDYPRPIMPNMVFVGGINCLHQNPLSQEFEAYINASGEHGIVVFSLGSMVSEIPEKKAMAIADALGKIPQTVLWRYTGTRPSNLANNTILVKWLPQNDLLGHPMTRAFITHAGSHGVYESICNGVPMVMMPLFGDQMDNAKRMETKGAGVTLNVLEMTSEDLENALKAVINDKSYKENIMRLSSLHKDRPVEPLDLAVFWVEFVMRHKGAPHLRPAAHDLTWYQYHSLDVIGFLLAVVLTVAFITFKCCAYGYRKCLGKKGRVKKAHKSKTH
Experimental: Following the UGT enzyme reaction, an equal volume of P450-Glo Luciferin Detection Reagent (LDR) (Promega) containing 15-30 mM D-cysteine-HCl.H2O (Sigma) was added and the plate was mixed and incubated at room temperature, typically for 20-30 minutes. P450-Glo Luciferin Detection Reagent contains a luciferase reaction mixture that includes a recombinant firefly luciferase, ATP and Mg^2+.
After 2 hours at 37° C., 10 μL of 50 mM D-cysteine-HCl.H2O diluted in 200 mM HEPES, pH 8.0 was added to each 40 μL UGT reaction. After 10 minute incubations, 50 μL P450-Glo LDR (Promega) was added to each well, and bioluminescence was measured.
After 90 minutes at 37° C., 40 μL of P450-Glo LDR plus 20 mM D-cysteine was added to each 40 μL reaction and mixed. After 20 minutes at room temperature, bioluminescence was measured on a luminometer.

[1] = system: UGT isozymes in human hepatocytes; settings: diclofenac, 15-20 minutes at 37° C.
UGT isozymes = UGT isozymes currently reported in the literature; cited from earlier work
[2] = system: UGT activity in human liver microsomes (HLM); test: Inhibition of UGT activity in human liver microsomes, compound 3138 as substrate; assay type: biochemical; settings: 50 μM compound 3138, 0.1 mg/mL HLM, 15 minutes at 37° C.; read-out: IC50 for HLM utilization of compound 3138
Experimental: To assess the ability of these compounds to inhibit UGT activity in HLM, reactions were set up as follows. […] Sulfinpyrazone, quinidine, and androsterone were used at a final concentration of 0.5 mM. 1-Naphthol, scopoletin, umbelliferne, and 7-hydroxy-4-trifluoromethyl coumarin were used at a final concentration of 1 mM. […] Valproate was used at a final concentration of 10 mM. All reactions were compared to their corresponding vehicle control sample containing either water, DMSO, or ethanol.

CYP1A2 [3] = test: Multiplex human hepatocyte assay, CYP1A2 detected with compound 3019; assay type: cell-based; settings: human hepatocytes, 100 μM omeprazole 48 hours
Experimental: For detection of CYP3A4, the luciferin acetal derivative, Luciferin-IPA (Luc-IPA), was used with bioluminescence detected using LDR without D-cysteine.
Human cryopreserved hepatocytes (Celsis In Vitro Technologies) were thawed and seeded in hepatocyte culture medium in wells of a collagen-coated, 96-well culture plate at ˜50,000 cells per well and kept at 37° C. in standard cell culture incubator with 5% CO2. […] The plate was then removed from the incubator. Fifty μl from each intact cell supernatant was transferred to two-set wells of a white, 96-well luminometer plate (Costar). To one set of wells, 50 μl of LDR with 4 mM D-cysteine was added, while 50 μl of LDR without D-cysteine was added to the other set.

CYP1A2 [4] = test: Non-lytic cell-based assay with human hepatocytes, compound 3019; settings: 100 μM omeprazole 48 hours, 3 μM compound 3019
Experimental: Human cryopreserved hepatocytes (Celsis lot RTM) were thawed and seeded in hepatocyte culture medium in wells of a collagen-coated, 96-well culture plate at ˜70,000 cells per well and kept at 37° C. in standard cell culture incubator with 5% CO2. The cells were then treated for 48 hours with 100 μM omeprazole or vehicle control (0.1% dimethylsulfoxide) dissolved in hepatocytes culture medium (n═3 for each treatment, mean values and standard deviations are shown). […] 50 μl of the KH incubation buffer was then removed from each well and transferred to a well of a white, 96-well luminometer plate (Costar) where it was also combined with 50 μl of P450-Glo LDR containing 6.6 mM D-cysteine.

Compound: N#Cc1nc2ccc(NCc3cccc(N)c3)cc2s1 [Compound 3165]
- % utilization of substrate by UGT 1A9 (UGT 1A9): to a lesser extent
- utilization of substrate by UGT 1A4 (UGT 1A4): only utilized by UGT 1A4
- utilization (activity) with mouse liver microsomes (mouse liver microsomes): Activity was also seen
- utilization (activity) with human liver microsomes versus human renal or intestinal microsomes (human liver microsomes): Activity was much higher for human liver microsomes
- utilization (activity) with rat liver microsomes (rat liver microsomes): Activity was also seen

Compound: O=C(O)Cc1ccccc1Nc1c(Cl)cccc1Cl [Diclofenac]
- IC50 (UGT 1A1): 232 µM
- inhibition of compound 3138 conversion in hepatocytes [1]: inhibited
- Isozymes Modulated (UGT isozymes): Inhibits most isozymes
- IC50 [2]: 60 µM

- induction of CYP1A2 activity (CYP1A2 [3]; compound 3019 alone (FIG. 34A)): induction of CYP1A2 activity
- induction of CYP1A2 activity (CYP1A2 [3]; compound 3019 in the presence of Luciferin-IPA (FIG. 34C)): induction of CYP1A2 activity
- change of signal versus vehicle (CYP1A2 induction) (CYP1A2 [4]): significantly increased
Compound: COc1ccc2[nH]c([S+]([O-])Cc3ncc(C)c(OC)c3C)nc2c1 (stereo not drawn) [omeprazole]
